Measured values as given in PMC6688997 (Nature Communications, 2019).
Several values for one entry are separate records, joined by “and”; a condition that tells them apart may be missing. Equal values may be shown once. Read-outs that look alike come from different tables or passages of the source.

How the values were obtained:
[1] = tested on: parental Ba/F3 cells (with IL-3); assay: CellTiter-Glo cell viability assay; assay type: cell-based, murine; conditions: Mus musculus
[2] = tested on: ROS1-rearranged NSCLC patients; conditions: cited from earlier work
[3] = tested on: Ba/F3-TPM3-NTRK1 cells (WT); assay: CellTiter-Glo cell viability assay; assay type: cell-based, murine; conditions: Mus musculus, 72 h
[4] = tested on: Ba/F3-CD74-ROS1 L2026M cells; assay: CellTiter-Glo cell viability assay; assay type: cell-based, murine; conditions: Mus musculus
[5] = tested on: phospho-ROS1 in JFCR-165 cells; assay: Immunoblot of ROS1 autophosphorylation; assay type: cell-based, human; conditions: 6 h
Protocol: (§1) Lysates were prepared using 1x SDS lysis buffer (1% SDS and 10% glycerol in 100 mM Tris–HCl [pH 7.5])[27]. […] All the primary antibody was used 1:1000 dilution for immunoblot analysis.

[6] = tested on: phospho-ROS1 in MGH193-1B cells; assay: Immunoblot of ROS1 autophosphorylation; assay type: cell-based, human; conditions: 6 h
Protocol: as §1

[7] = tested on: phospho-ROS1 in JFCR-168 cells; assay: Immunoblot of ROS1 autophosphorylation; assay type: cell-based, human; conditions: 6 h
Protocol: as §1

[8] = tested on: Ba/F3-CD74-ROS1 cells (WT); assay: CellTiter-Glo cell viability assay; assay type: cell-based, murine; conditions: Mus musculus
[9] = tested on: Ba/F3-CD74-ROS1 G2032R cells; assay: CellTiter-Glo cell viability assay; assay type: cell-based, murine; conditions: Mus musculus
[10] = tested on: HCC78xe3-SLC34A2-ROS1-WT xenograft; assay type: in vivo, mouse; set-up: Tumor volume LWW/2: unit not given here
[11] = Body weight of Ba/F3-CD74-ROS1-WT xenograft mice; assay type: in vivo, mouse; conditions: Crizotinib 100 mg/kg po; for Body Weight Change(%) (average / SD): N 6
[12] = tested on: Ba/F3-CD74-ROS1-WT xenograft; assay type: in vivo, mouse; conditions: for Tumor volume (average / SE): ROS1-WT xenograft, 100 mg/kg po
[13] = tested on: phospho-ROS1 in HCC78xe3-SLC34A2-ROS1-G2032R xenograft tumors; assay: Immunoblot of xenograft tumors; assay type: in vivo, mouse; conditions: 3 days treatment
[14] = Crizotinib 100 mg/kg po; for Body Weight Change(%) (average / SD): N 6
[15] = tested on: Ba/F3-CD74-ROS1 L1951R cells; assay: CellTiter-Glo cell viability assay; assay type: cell-based, murine; conditions: Mus musculus
[16] = tested on: SLC34A2-ROS1-G2032R overexpressing HCC78xe3 cells; assay: Cell viability in 3D culture, CellTiter-Glo; assay type: cell-based; conditions: 72 h
[17] = tested on: Ba/F3-CD74-ROS1 D2033N cells; assay: CellTiter-Glo cell viability assay; assay type: cell-based, murine; conditions: Mus musculus
[18] = tested on: HCC78xe3-SLC34A2-ROS1-G2032R xenograft; assay type: in vivo, mouse
[19] = Crizotinib 100mg/kg, day 0, single mouse, in mm³
[20] = Crizotinib 100mg/kg, day 3, single mouse, in mm³
[21] = Crizotinib 100mg/kg, day 6, single mouse, in mm³
[22] = Crizotinib 100mg/kg, day 9, single mouse, in mm³
[23] = Crizotinib 100mg/kg, day 14, single mouse, in mm³
[24] = Crizotinib 100mg/kg, day 17, single mouse, in mm³
[25] = Crizotinib 100mg/kg, day 25, single mouse, in mm³
[26] = Crizotinib 100mg/kg, day 28, single mouse, in mm³
[27] = Crizotinib 100mg/kg, day 35, single mouse, in mm³
[28] = Crizotinib 100mg/kg, day 38, single mouse, in mm³
[29] = Crizotinib 100mg/kg, day 43, single mouse, in mm³
[30] = Crizotinib 100mg/kg, day 48, single mouse, in mm³
[31] = Crizotinib 100mg/kg, day 52, single mouse, in mm³
[32] = Crizotinib 100mg/kg, day 55, single mouse, in mm³

C[C@@H](Oc1cc(-c2cnn(C3CCNCC3)c2)cnc1N)c1c(Cl)ccc(F)c1Cl [crizotinib, reference compound]
IC50 ([1]; BaF3, 72 h): 812 nM | GI50 ([1]; BaF3, source data sheet): 798 nM | Median progression-free survival [2]: 19.2 months | Overall response rate [2]: 72% | IC50 [3]: 21.4 nM | GI50 [4]: […] | IC50 ([4]; 72 h): […] | Inhibition of autophosphorylation of ROS1 [5]: potently inhibited | Inhibition of autophosphorylation of ROS1 [6]: potently inhibited | Inhibition of autophosphorylation of ROS1 [7]: potently inhibited | IC50 ([8]; 72 h): […] | GI50 ([8]; source data sheet): […] | IC50 ([9]; 72 h): […] | GI50 ([9]; source data sheet): […] | Tumor volume LWW/2 [10, 19]: 172.7 and 167.7 | Tumor volume LWW/2 [10, 20]: 103.2 and 100.2 | Tumor volume LWW/2 [10, 21]: 67.8 and 77.3 | Tumor volume LWW/2 [10, 22]: 39.9 | Tumor volume LWW/2 [10, 23]: 13.2 | Tumor volume LWW/2 [10, 24]: 18.9 and 19.3 | Tumor volume LWW/2 [10, 25]: 5.2 | Tumor volume LWW/2 [10, 26]: 6.5 | Tumor volume LWW/2 [10, 27]: 8.7 | Tumor volume LWW/2 [10, 28]: 5.4 | Tumor volume LWW/2 [10, 29]: 4.9 | Tumor volume LWW/2 [10, 30]: 7.2 | Tumor volume LWW/2 [10, 31]: 15.8 | Tumor volume LWW/2 [10, 32]: 16.3 | Tumor volume LWW/2 ([10]; HCC78_Xe3_WT xenograft, BALB/c-nu mice, Crizotinib 50mg/kg, day 25, individual mice No. 7-12): 44.9 and 36.7 and 19.6 | Tumor volume LWW/2 ([10]; HCC78_Xe3_WT xenograft, BALB/c-nu mice, Crizotinib 50mg/kg, day 43, individual mice No. 7-12): 75.9 and 129.8 and 100.2 | Body Weight Change(%) (average / SD) ([11]; day 0, average): 0.0% | Body Weight Change(%) (individual) ([11]; day 0, individual animals): 0% | Body Weight Change(%) (average / SD) ([11]; day 1, average): -2.0% | Body Weight Change(%) (individual) ([11]; day 1, individual animals): -1% and -1.4% and -4.2% and -2.7% and -0.5% and -2.3% | Body Weight Change(%) (average / SD) ([11]; day 2, average): -1.9% | Body Weight Change(%) (individual) ([11]; day 2, individual animals): -1.9% and -0.5% and -3.3% and -1.8% | Body Weight Change(%) (average / SD) ([11]; day 3, average): -1.7% | Body Weight Change(%) (individual) ([11]; day 3, individual animals): -2.4% and -1.4% and -4.2% and 2.3% and -2.8% | Body Weight Change(%) (average / SD) ([11]; day 4, average): -4.4% | Body Weight Change(%) (individual) ([11]; day 4, individual animals): -3.9% and -3.8% and -6.5% and -2.3% and -5.3% and -4.6% | Tumor shrinkage ([12]; 100 mg/kg once daily oral, 4 days): induced tumor shrinkage | Tumor volume (average / SE) ([12]; day 0, N 6): 289 mm3 | Tumor volume (average / SE) ([12]; day 2, N 6): 151 mm3 | Tumor volume (average / SE) ([12]; day 4, N 6): 44 mm3 | Inhibition of phospho-ROS1 in tumors [13]: in SLC34A2-ROS1-WT-expressing HCC78xe3 cells only | Body Weight Change(%) (average / SD) ([14]; day 0, average): 0.0% | Body Weight Change(%) (individual) ([14]; day 0, individual animals): 0% | Body Weight Change(%) (average / SD) ([14]; day 1, average): -1.6% | Body Weight Change(%) (average / SD) ([14]; day 2, average): -0.4% | Body Weight Change(%) (average / SD) ([14]; day 3, average): -0.3% | Body Weight Change(%) (average / SD) ([14]; day 4, average): 0.5% | IC50 ([15]; 72 h): […] | GI50 ([15]; source data sheet): […] | Cell growth inhibition [16]: much higher than those to WT cells | GI50 [17]: […] | Tumor growth inhibition ([18]; 50 and 100 mg/kg once daily oral): highly resistant to crizotinib | Tumor volume LWW/2 [18, 19]: 154.5 | Tumor volume LWW/2 [18, 20]: 162.2 and 132.5 | Tumor volume LWW/2 [18, 21]: 164.7 and 110.8 | Tumor volume LWW/2 [18, 22]: 136.2 and 132.2 | Tumor volume LWW/2 [18, 23]: 155.8 and 119.8 | Tumor volume LWW/2 [18, 24]: 174.0 and 154.2 | Tumor volume LWW/2 ([18]; Crizotinib 100mg/kg, day 21, single mouse, in mm³): 274.9 and 242.5 | Tumor volume LWW/2 [18, 25]: 238.7 and 300.2 | Tumor volume LWW/2 [18, 26]: 247.6 and 347.9 | Tumor volume LWW/2 ([18]; Crizotinib 100mg/kg, day 31, single mouse, in mm³): 309.9 and 336.1 | Tumor volume LWW/2 [18, 27]: 418.2 and 509.9 | Tumor volume LWW/2 [18, 28]: 526.9 and 595.5 | Tumor volume LWW/2 [18, 29]: 740.1 and 596.0 | Tumor volume LWW/2 [18, 30]: 745.2 and 699.2 | Tumor volume LWW/2 [18, 31]: 846.3 and 852.5 | Tumor volume LWW/2 [18, 32]: 921.5 and 834.7 | Tumor volume LWW/2 ([18]; HCC78_Xe3_G2032R xenograft, BALB/c-nu mice, Crizotinib 50mg/kg, day 6, individual mice No. 7-12): 127.8 and 126.6 | Tumor volume LWW/2 ([18]; HCC78_Xe3_G2032R xenograft, BALB/c-nu mice, Crizotinib 50mg/kg, day 17, individual mice No. 7-12): 278.8 and 148.6 and 98.2 | Survival ([18]; Kaplan–Meier, 50 and 100 mg/kg): did not show any superiority to the control group
